One experiment deals with T1, FGFR4 (Homo sapiens, UniProt P22455).
T1 construct: purchased Eurofins Discovery Services (Dundee, United Kingdom)
Put plainly: Kinase inhibition IC50 assay (Eurofins). Type of experiment: biochemical. As to the method:
(§1) Median-inhibitory concentration (IC50) and inhibition ratio of kinases by RK-019 was assessed by Eurofins Discovery Services (Dundee, United Kingdom) using the ATP-site competition binding assay in vitro. Firstly, gradient concentration of RK-019 against FGFRs, including FGFR1, FGFR2, FGFR3, and FGFR4, were tested. IC50 value was calculate by the GraphPad Prism software (v8.4.3, GraphPad Software, California, United States). Then, to measure the selectivity prolife of RK-019, a panel of 422 recombinant human kinases was screened at a concentration of 1 µM RK-019. Kinase MAP was drawn by webtools from Cell Signaling Technology, Inc. (www.cellsignal.com).
(§2) All data were analyzed by the GraphPad Prism 8.4.3 (GraphPad Software, California, United States), and was shown as mean value ±SD or SEM, details will be illustrated in the figure legends. Dose-effect curve analysis (IC50 calculation) was performed by the Graphpad Prism software. First, concentration value was converted to log value, followed by non-linear regression analyze which is log(inhibitor) vs. normalized response—Variable slope, was performed to calculate the IC50 values. The statistically significant p values were calculated by student’s t-test or two-way ANOVA and were shown in graphics which were labeled as follows: *p < 0.05; **p < 0.01; ***p < 0.001.

For a further experiment, the target named is T2, FGFR2 (Homo sapiens, UniProt P21802).
T2 construct: purchased Eurofins Discovery Services (Dundee, United Kingdom)
Description: Kinase inhibition IC50 assay (Eurofins). It counts as biochemical. As to the method: as §1, §2

Another experiment addresses T3, FGFR3 (Homo sapiens, UniProt P22607).
T3 construct: purchased Eurofins Discovery Services (Dundee, United Kingdom)
Put plainly: Kinase inhibition IC50 assay (Eurofins). Type of experiment: biochemical. As for the experimental part: as §1, §2

For the next experiment, the target named is T4, FGFR1 (Homo sapiens, UniProt P11362).
T4 construct: purchased Eurofins Discovery Services (Dundee, United Kingdom)
Description: Kinase inhibition IC50 assay (Eurofins). Type of experiment: biochemical. As to the method:
as §1, §2

Another experiment deals with T5, Rsk1(r) (Rattus norvegicus, UniProt Q63531).
T5 construct: purchased Eurofins Discovery Services (KinaseProfiler)
Put plainly: Kinase selectivity panel. It counts as biochemical. The following applies: read-out: Inhibition(%) @ 1 µM RK-019.

The subject of another experiment is CK1(y). Put plainly: Kinase selectivity panel. The following applies: read-out: Inhibition(%) @ 1 µM RK-019. Type of experiment: biochemical, yeast. As to the method:
as §1

The target in a further experiment is T6, FGFR3(h) (Homo sapiens, UniProt P22607).
T6 construct: purchased Eurofins Discovery Services (KinaseProfiler)
Put plainly: Kinase selectivity panel. It counts as biochemical. As for the experimental part: as §1

Another experiment concerns the target T7, EGFR(L861Q)(h) (Homo sapiens, UniProt P00533, L861Q).
T7 construct: purchased Eurofins Discovery Services (KinaseProfiler)
Put plainly: Kinase selectivity panel. It counts as biochemical. The following applies: read-out: Inhibition(%) @ 1 µM RK-019. As for the experimental part:
as §1

Another experiment deals with T8, Lck(h) activated (Homo sapiens, UniProt P06239).
T8 construct: purchased Eurofins Discovery Services (KinaseProfiler)
Put plainly: Kinase selectivity panel. The following applies: read-out: Inhibition(%) @ 1 µM RK-019. Type of experiment: biochemical. As to the method: as §1

For experiment [1], the system named is SNU-16 cells. Put plainly: Transwell migration and invasion assay. Type of experiment: cell-based. The following applies: SNU-16, 100 nM, 24 h. As to the method: (§3) In the migration assay, 1×10^5 cells were resuspended in a serum-free medium, then added into the upper chamber, meanwhile the medium containing 10% FBS was added at the bottom with 100 nM RK-019. After 24 h incubation, the migration cells on the filters were fixed with 4% paraformldehyde and washed with PBS, then stained with crystal violet solution for 20 min. In the invasion assay, the upper surface of the transwell was coated with Matrigel (356234, Corning) for 30 min at 37°C until Matrigel was solidified. 1×10^5 cells were resuspended in a serum-free medium, then added into the upper chamber, meanwhile the medium containing 10% FBS was added at the bottom with 100 nM RK-019.After 24 h , the invasion cells on the filters were hatched and fixed, then stained with crystal violet.

Experiment [2] has as its system KATO III cells. Description: Transwell migration and invasion assay. Type of experiment: cell-based. The following applies: 100 nM, 24 h. As to the method: as §3
The test system of another experiment is SNU-16 xenograft. Description: Subcutaneous xenograft model. Type of experiment: in vivo, NOD/SCID mice. As for the experimental part:
NOD/SCID mice (6-week-old, weight 18–20 g, Beijing HJF bioscience) were used in this experiment and maintained in a specific-pathogen-free (SPF) condition facility. SNU-16 Cells were resuspended in PBS mixed with Matrigel (1:1) and adjust the density to 1×10^7 per mice (100 μL). The cell suspensions were inoculated subcutaneously on the right flank of the mice. When the mean tumor volume reached approximately 200 mm^3, the mice were divided into four groups (five mice each group): i. Vehicle group, ii. RK-019 15 mg/kg group, iii. RK-019 30 mg/kg group, and iv. RK-019 45 mg/kg group. RK-019 was dissolved in same formula as the in vivo PK study. RK-019 was administrated once per day by oral gavage for 21 days. Tumor volumes were measured three times per week. The tumor volume was measured by a caliper and calculated according to the following formula: Tumor volume=Major axis×Miner axis^2/2.
At the end of administration, the mice were executed euthanasia, then tumors, blood, and organs were extracted. The complete blood count (CBC), serum phosphorus analysis, and blood biochemical analysis were completed by West China Frontier Pharma Tech (Chengdu, China). The pathological section and IHC stanning was completed by Servicebio (Wuhan, China). The tumor growth inhibition (TGI) values were calculated with the following formula: TGI=(1−Tn−T0/Cn−C0)×100%.
Tn and T0 represent average tumor volume before treatment and that of day n after treatment in the treatment group. Cn and C0 represent average tumor volume before treatment and that of day n after treatment in the vehicle group. In this study, n is 21st day.

Experiment [3] relates to SNU-16 cells. Description: Cell viability assay (MTT). Particulars: Homo sapiens; SNU-16, mean ± SD. It counts as cell-based. As to the method: (§4) For suspension and mixed suspension adherent cells, the cells were seeded in 96-well plate with different cell density, 0.5×10^4 per well for 96 h treatment, 1×10^4 per well for 72 h treatment, 2×10^4 per well for 48 h treatment, and 5×10^4 per well for 24 h treatment. Different doses of RK-019 were treated as soon as the cell seeded in 96-well plates. For adherent cells, the cells were seeded in a 96-well plate with 3×10^3 per well and cultured overnight followed by administrated different doses of RK-019. After indicated time treatment, MTT solution at a final concentration of 0.5 mg/ml was added and incubated 2–4 h at 37°C. Formazan formed by the living cells was dissolved with DMSO and the absorbance was measured using a microplate spectrophotometer (MultiskanFC, ThermoFisher, Waltham, MA, United States) at 570 nm. IC50 value of RK-019 was calculated by the Graphpad Prism software.
(§5) All data were analyzed by the GraphPad Prism 8.4.3 (GraphPad Software, California, United States), and was shown as mean value ±SD or SEM, details will be illustrated in the figure legends. Dose-effect curve analysis (IC50 calculation) was performed by the Graphpad Prism software. […] The statistically significant p values were calculated by student’s t-test or two-way ANOVA and were shown in graphics which were labeled as follows: *p < 0.05; **p < 0.01; ***p < 0.001.

Experiment [4] relates to KATO III cells. Description: Cell viability assay (MTT). Type of experiment: cell-based. Particulars: Homo sapiens, mean ± SD. As to the method:
as §4, §5

Several values for one entry are separate records, joined by “and”; a condition that tells them apart may be missing. Identical values can stand only once. Where only a bound is given, the exact number is not on record here.

T4 sequence (P11362 22-822): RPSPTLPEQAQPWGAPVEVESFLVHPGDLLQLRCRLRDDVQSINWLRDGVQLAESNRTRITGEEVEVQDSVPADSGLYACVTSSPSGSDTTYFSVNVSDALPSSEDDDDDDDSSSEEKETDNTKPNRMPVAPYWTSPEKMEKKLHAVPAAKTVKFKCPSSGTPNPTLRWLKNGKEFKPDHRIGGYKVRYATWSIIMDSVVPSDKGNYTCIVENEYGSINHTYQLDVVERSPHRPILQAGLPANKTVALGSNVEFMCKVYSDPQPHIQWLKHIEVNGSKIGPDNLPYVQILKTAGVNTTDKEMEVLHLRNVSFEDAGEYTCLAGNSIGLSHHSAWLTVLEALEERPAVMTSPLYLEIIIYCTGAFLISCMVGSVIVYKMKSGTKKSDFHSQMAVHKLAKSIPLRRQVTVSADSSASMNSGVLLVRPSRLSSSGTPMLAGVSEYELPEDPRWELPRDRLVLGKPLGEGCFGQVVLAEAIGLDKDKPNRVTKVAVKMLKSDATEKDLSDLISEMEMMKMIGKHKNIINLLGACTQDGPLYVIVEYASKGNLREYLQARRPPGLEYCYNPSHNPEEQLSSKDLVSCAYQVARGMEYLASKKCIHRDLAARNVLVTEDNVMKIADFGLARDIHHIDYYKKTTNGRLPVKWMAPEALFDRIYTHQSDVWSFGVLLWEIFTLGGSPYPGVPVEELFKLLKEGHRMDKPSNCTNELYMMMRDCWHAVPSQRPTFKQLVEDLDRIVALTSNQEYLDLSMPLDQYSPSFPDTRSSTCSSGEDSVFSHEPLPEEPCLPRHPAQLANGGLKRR
T6 sequence (P22607 23-806): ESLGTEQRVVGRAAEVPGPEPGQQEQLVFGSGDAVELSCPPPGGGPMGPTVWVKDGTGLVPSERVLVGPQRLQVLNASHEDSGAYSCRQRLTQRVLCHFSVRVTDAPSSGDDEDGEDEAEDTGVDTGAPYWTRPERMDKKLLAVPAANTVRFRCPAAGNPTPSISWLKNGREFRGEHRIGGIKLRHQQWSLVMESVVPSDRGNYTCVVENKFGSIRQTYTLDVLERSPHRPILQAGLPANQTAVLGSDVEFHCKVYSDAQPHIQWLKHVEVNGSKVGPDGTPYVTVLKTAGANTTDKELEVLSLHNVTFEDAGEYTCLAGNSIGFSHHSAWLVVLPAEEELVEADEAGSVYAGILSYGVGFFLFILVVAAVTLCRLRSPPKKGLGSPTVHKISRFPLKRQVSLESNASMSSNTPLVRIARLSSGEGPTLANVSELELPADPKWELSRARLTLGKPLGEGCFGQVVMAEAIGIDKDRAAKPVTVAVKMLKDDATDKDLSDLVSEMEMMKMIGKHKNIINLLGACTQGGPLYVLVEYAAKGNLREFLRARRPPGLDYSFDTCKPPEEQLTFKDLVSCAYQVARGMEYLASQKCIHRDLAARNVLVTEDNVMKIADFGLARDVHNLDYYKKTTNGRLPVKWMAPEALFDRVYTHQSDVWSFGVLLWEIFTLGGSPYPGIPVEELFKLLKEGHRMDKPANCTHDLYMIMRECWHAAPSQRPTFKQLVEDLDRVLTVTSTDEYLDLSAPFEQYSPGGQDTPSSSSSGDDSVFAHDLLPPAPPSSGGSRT
T8 sequence (P06239 whole entry): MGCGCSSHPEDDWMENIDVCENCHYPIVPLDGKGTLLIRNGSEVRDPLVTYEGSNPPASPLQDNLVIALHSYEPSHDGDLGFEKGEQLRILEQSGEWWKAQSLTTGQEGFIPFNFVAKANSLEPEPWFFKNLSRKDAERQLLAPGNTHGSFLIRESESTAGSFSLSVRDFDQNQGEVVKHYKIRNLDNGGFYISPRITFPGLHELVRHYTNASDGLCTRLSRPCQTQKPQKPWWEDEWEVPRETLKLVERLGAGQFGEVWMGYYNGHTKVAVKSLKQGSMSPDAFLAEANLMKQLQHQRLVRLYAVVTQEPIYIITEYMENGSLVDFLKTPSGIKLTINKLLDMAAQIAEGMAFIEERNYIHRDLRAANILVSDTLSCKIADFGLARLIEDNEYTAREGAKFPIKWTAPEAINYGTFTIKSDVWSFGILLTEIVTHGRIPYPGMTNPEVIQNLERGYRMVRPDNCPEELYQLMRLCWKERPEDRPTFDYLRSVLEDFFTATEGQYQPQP
T5 sequence (Q63531 whole entry): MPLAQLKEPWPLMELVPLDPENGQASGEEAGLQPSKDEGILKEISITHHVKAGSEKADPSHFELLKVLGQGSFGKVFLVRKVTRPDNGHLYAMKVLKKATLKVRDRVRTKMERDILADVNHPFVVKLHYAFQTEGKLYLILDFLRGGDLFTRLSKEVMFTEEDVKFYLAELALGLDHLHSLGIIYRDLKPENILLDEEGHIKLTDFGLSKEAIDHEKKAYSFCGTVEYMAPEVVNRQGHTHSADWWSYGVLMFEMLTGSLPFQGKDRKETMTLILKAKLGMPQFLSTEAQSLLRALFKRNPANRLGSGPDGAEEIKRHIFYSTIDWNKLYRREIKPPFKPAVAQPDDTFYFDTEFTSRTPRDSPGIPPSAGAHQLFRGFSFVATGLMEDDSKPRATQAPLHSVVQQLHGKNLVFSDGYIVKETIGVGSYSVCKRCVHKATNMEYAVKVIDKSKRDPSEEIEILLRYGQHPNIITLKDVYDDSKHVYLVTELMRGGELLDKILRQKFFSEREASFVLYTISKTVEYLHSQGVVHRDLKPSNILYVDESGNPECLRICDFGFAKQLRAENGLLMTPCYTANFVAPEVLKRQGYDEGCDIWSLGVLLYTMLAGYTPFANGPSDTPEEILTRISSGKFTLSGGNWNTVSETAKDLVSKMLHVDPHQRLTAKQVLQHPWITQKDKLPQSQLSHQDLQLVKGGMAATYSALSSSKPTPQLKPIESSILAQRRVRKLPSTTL
T2 sequence (P21802 22-821): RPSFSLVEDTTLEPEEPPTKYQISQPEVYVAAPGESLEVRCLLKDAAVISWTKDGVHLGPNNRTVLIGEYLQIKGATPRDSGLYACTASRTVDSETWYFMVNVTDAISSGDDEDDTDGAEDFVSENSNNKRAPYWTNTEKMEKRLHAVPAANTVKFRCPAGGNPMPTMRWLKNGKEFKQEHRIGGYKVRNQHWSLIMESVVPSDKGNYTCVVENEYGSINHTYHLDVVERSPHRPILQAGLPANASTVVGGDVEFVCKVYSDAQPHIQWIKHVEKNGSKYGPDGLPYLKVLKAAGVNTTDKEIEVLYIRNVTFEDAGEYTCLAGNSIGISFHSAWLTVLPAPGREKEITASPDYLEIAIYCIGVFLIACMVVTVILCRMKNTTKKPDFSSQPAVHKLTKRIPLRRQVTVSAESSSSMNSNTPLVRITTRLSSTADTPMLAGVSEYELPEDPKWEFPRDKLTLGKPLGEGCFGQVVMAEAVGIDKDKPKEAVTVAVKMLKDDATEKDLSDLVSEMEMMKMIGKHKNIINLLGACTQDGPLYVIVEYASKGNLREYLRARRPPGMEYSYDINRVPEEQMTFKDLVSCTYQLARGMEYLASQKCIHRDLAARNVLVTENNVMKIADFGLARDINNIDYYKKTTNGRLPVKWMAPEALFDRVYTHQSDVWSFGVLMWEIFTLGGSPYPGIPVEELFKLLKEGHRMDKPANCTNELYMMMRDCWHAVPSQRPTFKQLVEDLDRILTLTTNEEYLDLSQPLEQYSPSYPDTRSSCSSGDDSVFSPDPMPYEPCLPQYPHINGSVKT
T1 sequence (P22455 22-802): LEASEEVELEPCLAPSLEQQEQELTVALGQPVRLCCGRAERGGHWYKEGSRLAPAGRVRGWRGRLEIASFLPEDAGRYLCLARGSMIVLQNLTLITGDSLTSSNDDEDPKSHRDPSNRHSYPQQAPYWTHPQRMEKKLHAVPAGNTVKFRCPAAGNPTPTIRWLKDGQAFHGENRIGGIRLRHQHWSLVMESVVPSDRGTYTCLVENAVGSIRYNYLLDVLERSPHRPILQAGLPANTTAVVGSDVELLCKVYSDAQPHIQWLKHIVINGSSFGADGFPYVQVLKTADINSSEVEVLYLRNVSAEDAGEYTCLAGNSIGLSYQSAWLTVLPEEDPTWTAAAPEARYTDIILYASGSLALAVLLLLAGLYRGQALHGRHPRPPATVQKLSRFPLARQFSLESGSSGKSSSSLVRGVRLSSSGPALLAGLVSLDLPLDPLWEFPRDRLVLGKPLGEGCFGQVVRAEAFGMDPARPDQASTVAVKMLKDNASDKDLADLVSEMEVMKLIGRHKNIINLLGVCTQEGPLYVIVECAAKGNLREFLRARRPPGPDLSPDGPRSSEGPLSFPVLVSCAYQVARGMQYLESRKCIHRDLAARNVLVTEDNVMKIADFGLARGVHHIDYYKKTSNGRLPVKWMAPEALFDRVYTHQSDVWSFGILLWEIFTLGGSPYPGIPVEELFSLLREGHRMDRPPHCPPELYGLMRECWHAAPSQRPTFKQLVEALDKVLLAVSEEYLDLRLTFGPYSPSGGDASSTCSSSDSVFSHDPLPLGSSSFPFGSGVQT
T3 sequence (P22607 23-806): as the sequence (P22607 23-806) above

In general, IC50 refers to the concentration needed to halve the response being measured. As a reminder, the inhibition is the change of the read-out against control, counted positive when it falls. The TGI is the reduction of tumour growth relative to the control group. Consider `COc1cc(OC)cc(N(CCN[C@H](C)CO)c2ccc3ncc(-c4cnn(C)c4)c(=O)n3c2)c1` [RK-019, (R)-7-((3,5-dimethoxyphenyl) (2-((1-hydroxypropan-2-yl)amino)ethyl)amino)-3-(1-methyl-1H-pyrazol-4-yl)-4H-pyrido [1,2-a]pyrimidin-4-one], for which the concentration for half-maximal inhibition (IC50) was 40.7 nM against FGFR4; 4.6 nM on FGFR2; 26.3 nM against FGFR3; 8.9 nM and 9.1 nM on FGFR1; 3.96 ± 4.4 nM in the experiment with SNU-16 cells [3]; 5.45 ± 5.3 nM with KATO III cells [4]. Further, the activity at 1 µM is 96% at Rsk1(r); -3% at FGFR3(h) (FGFR3(h), read-out: Inhibition(%) @ 1 µM RK-019); 103% at EGFR(L861Q)(h); 36% on Lck(h) activated. The activity with CK1(y) was 94%. In addition, the inhibition at 1 µM at FGFR3(h) (FGFR3, 1 µM, read-out: inhibition (hit in panel)) was above 90%. The “migration and invasion ability” value in the experiment on SNU-16 cells [1] and with KATO III cells [2] was “significantly suppress” in each case. Also, the TGI in the experiment with SNU-16 xenograft (15 mg/kg oral once a day, 21 days) came to 34.3%; with SNU-16 xenograft (30 mg/kg oral once a day, 21 days), 85.9%; with SNU-16 xenograft (45 mg/kg oral once a day, 21 days), 83.5%. Also, the tumor weight result with SNU-16 xenograft (RK-019-treated group vs vehicle group, 21 days) is “significant decrease”. In addition, the “number of cleaved-caspase 3-positive cells (IHC of tumor tissue)” value in the experiment on SNU-16 xenograft (after 21 days treatment) is “increased significantly”. Moreover, in the experiment on SNU-16 xenograft (after 21 days treatment), the “number of p-FGFR2-positive and Ki67-positive cells (IHC of tumor tissue)” value is given as “decreased”.
